Results taken from patent US20250171438A1 (Agios Pharmaceuticals, Inc., priority 2022, published 2025).

Target: T1, human PAH with the R408W mutation (Homo sapiens, UniProt P00439, R408W)
T1 construct: expressed in transfected cells
T1 sequence (P00439 1-452 R408W): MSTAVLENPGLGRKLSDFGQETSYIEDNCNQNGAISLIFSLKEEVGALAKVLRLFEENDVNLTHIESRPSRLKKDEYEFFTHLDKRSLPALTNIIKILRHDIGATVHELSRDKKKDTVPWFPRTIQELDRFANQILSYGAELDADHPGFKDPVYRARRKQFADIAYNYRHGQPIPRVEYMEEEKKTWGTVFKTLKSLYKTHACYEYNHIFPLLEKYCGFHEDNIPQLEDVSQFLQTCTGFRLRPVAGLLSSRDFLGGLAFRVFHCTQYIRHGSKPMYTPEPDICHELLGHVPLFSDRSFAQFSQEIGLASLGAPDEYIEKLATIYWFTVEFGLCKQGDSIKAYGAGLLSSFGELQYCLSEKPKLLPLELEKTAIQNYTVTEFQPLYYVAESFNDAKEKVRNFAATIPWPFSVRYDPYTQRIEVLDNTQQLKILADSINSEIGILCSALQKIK
Assay: Cell Based Phenylalanine Flux Assay
Settings: A375 cells expressing human R408W PAH; 24 hrs compound incubation; 13C-Tyrosine by LC-MS; average where tested multiple times; read-out: AC50

AC50	SMILES
1000 to 5000 nM	O=C(Cc1nccs1)N1CCc2[nH]cnc2[C@@H]1c1nc2cccc(Br)c2s1 [Example 1175, (R)-1-(4-(7-bromobenzo[d]thiazol-2-yl)-6,7-dihydro-1H-imidazo[4,5-c]pyridin-5(4H)-yl)-2-(thiazol-2-yl)ethanone]
500 to 1000 nM	O=C(Cc1nccs1)N1CCc2[nH]cnc2[C@H]1c1nc2cccc(Br)c2s1 [Example 1176, (S)-1-(4-(7-bromobenzo[d]thiazol-2-yl)-6,7-dihydro-1H-imidazo[4,5-c]pyridin-5(4H)-yl)-2-(thiazol-2-yl)ethanone]
< 500 nM	O=C(c1cnc(C2CC2)s1)N1CCc2[nH]cnc2[C@H]1c1nc2ccccc2s1 [Example 1179]
1000 to 5000 nM	O=C(c1cnc(C2CC2)s1)N1CCc2[nH]cnc2[C@@H]1c1nc2ccccc2s1 [Example 1180, (R)-(4-(benzo[d]thiazol-2-yl)-6,7-dihydro-1H-imidazo[4,5-c]pyridin-5(4H)-yl)(2-cyclopropylthiazol-5-yl)methanone]
500 to 1000 nM	O=C(c1cnc(C(F)(F)F)s1)N1CCc2[nH]cnc2[C@H]1c1nc2ccccc2s1 [Example 1181]
1000 to 5000 nM	O=C(c1cnc(C(F)(F)F)s1)N1CCc2[nH]cnc2[C@@H]1c1nc2ccccc2s1 [Example 1182, (R)-(4-(benzo[d]thiazol-2-yl)-6,7-dihydro-1H-imidazo[4,5-c]pyridin-5(4H)-yl)(2-(trifluoromethyl)thiazol-5-yl)methanone]
500 to 1000 nM	COCc1ncc(C(=O)N2CCc3[nH]cnc3[C@H]2c2nc3ccccc3s2)s1 [Example 1185]
1000 to 5000 nM	COCc1ncc(C(=O)N2CCc3[nH]cnc3[C@@H]2c2nc3ccccc3s2)s1 [Example 1186, (R)-(4-(benzo[d]thiazol-2-yl)-6,7-dihydro-1H-imidazo[4,5-c]pyridin-5(4H)-yl)(2-(methoxymethyl)thiazol-5-yl)methanone]
> 5000 nM	O=C(c1ncc(-c2ccccc2)s1)N1CCc2[nH]cnc2[C@@H]1c1nc2ccccc2s1 [Example 1190, (R)-(4-(benzo[d]thiazol-2-yl)-6,7-dihydro-1H-imidazo[4,5-c]pyridin-5(4H)-yl)(5-phenylthiazol-2-yl)methanone]
1000 to 5000 nM	O=C(c1cncs1)N1CCc2[nH]cnc2[C@H]1c1nc2cc(F)ccc2s1 [Example 1193, (S)-(4-(5-fluorobenzo[d]thiazol-2-yl)-6,7-dihydro-1H-imidazo[4,5-c]pyridin-5(4H)-yl)(thiazol-5-yl)methanone]
> 5000 nM	O=C(c1cncs1)N1CCc2[nH]cnc2[C@@H]1c1nc2cc(F)ccc2s1 [Example 1194, (R)-(4-(5-fluorobenzo[d]thiazol-2-yl)-6,7-dihydro-1H-imidazo[4,5-c]pyridin-5(4H)-yl)(thiazol-5-yl)methanone]
< 500 nM	O=C(c1cnn2ccc(Cl)cc12)N1CCc2[nH]cnc2[C@H]1c1nc2c(F)cccc2s1 [Example 1195]
1000 to 5000 nM	O=C(c1cnn2ccc(Cl)cc12)N1CCc2[nH]cnc2[C@@H]1c1nc2c(F)cccc2s1 [Example 1196, (R)-(5-chloropyrazolo[1,5-a]pyridin-3-yl)(4-(4-fluorobenzo[d]thiazol-2-yl)-6,7-dihydro-1H-imidazo[4,5-c]pyridin-5(4H)-yl)methanone]
1000 to 5000 nM	O=C(c1nccs1)N1CCc2[nH]cnc2[C@@H]1c1nc2cccc(Br)c2s1 [Example 1199, (R)-(4-(7-bromobenzo[d]thiazol-2-yl)-6,7-dihydro-1H-imidazo[4,5-c]pyridin-5(4H)-yl)(thiazol-2-yl)methanone]
500 to 1000 nM	O=C(c1nccs1)N1CCc2[nH]cnc2[C@H]1c1nc2cccc(Br)c2s1 [Example 1200, (S)-(4-(7-bromobenzo[d]thiazol-2-yl)-6,7-dihydro-1H-imidazo[4,5-c]pyridin-5(4H)-yl)(thiazol-2-yl)methanone]
1000 to 5000 nM	O=C(c1nccs1)N1CCc2[nH]cnc2[C@H]1c1nc2c(Cl)cccc2s1 [Example 1201, (S)-(4-(4-chlorobenzo[d]thiazol-2-yl)-6,7-dihydro-1H-imidazo[4,5-c]pyridin-5(4H)-yl)(thiazol-2-yl)methanone]

The remaining lines, values behind:

SMILES	AC50
Cc1ccc2c(C(=O)N3CCc4[nH]cnc4[C@H]3c3nc4c(F)cccc4s3)cnn2c1 [Example 1173, (S)-(4-(4-fluorobenzo[d]thiazol-2-yl)-6,7-dihydro-1H-imidazo[4,5-c]pyridin-5(4H)-yl)(6-methylpyrazolo[1,5-a]pyridin-3-yl)methanone]	500 to 1000 nM
Cc1ccc2c(C(=O)N3CCc4[nH]cnc4[C@@H]3c3nc4c(F)cccc4s3)cnn2c1 [Example 1174, (R)-(4-(4-fluorobenzo[d]thiazol-2-yl)-6,7-dihydro-1H-imidazo[4,5-c]pyridin-5(4H)-yl)(6-methylpyrazolo[1,5-a]pyridin-3-yl)methanone]	1000 to 5000 nM
Cc1nc(C)c(C(=O)N2CCc3[nH]cnc3[C@H]2c2nc3ccccc3s2)s1 [Example 1177]	500 to 1000 nM
Cc1nc(C)c(C(=O)N2CCc3[nH]cnc3[C@@H]2c2nc3ccccc3s2)s1 [Example 1178, (R)-(4-(benzo[d]thiazol-2-yl)-6,7-dihydro-1H-imidazo[4,5-c]pyridin-5(4H)-yl)(2,4-dimethylthiazol-5-yl)methanone]	> 5000 nM
O=C(c1cnc(NC2CC2)s1)N1CCc2[nH]cnc2[C@H]1c1nc2ccccc2s1 [Example 1183]	< 500 nM
O=C(c1cnc(NC2CC2)s1)N1CCc2[nH]cnc2[C@@H]1c1nc2ccccc2s1 [Example 1184, (R)-(4-(benzo[d]thiazol-2-yl)-6,7-dihydro-1H-imidazo[4,5-c]pyridin-5(4H)-yl)(2-(cyclopropylamino)thiazol-5-yl)methanone]	1000 to 5000 nM
O=C(c1cnc(C2CC2)o1)N1CCc2[nH]cnc2[C@H]1c1nc2ccccc2s1 [Example 1187]	500 to 1000 nM
O=C(c1cnc(C2CC2)o1)N1CCc2[nH]cnc2[C@@H]1c1nc2ccccc2s1 [Example 1188, (R)-(4-(benzo[d]thiazol-2-yl)-6,7-dihydro-1H-imidazo[4,5-c]pyridin-5(4H)-yl)(2-cyclopropyloxazol-5-yl)methanone]	1000 to 5000 nM
O=C(c1ncc(-c2ccccc2)s1)N1CCc2[nH]cnc2[C@H]1c1nc2ccccc2s1 [Example 1189]	1000 to 5000 nM
O=C(c1cnn2cc(C3CC3)ccc12)N1CCc2[nH]cnc2[C@H]1c1nc2ccccc2s1 [Example 1191]	500 to 1000 nM
O=C(c1cnn2cc(C3CC3)ccc12)N1CCc2[nH]cnc2[C@@H]1c1nc2ccccc2s1 [Example 1192, (R)-(4-(benzo[d]thiazol-2-yl)-6,7-dihydro-1H-imidazo[4,5-c]pyridin-5(4H)-yl)(6-cyclopropylpyrazolo[1,5-a]pyridin-3-yl)methanone]	1000 to 5000 nM
COc1ccn2ncc(C(=O)N3CCc4[nH]cnc4[C@H]3c3nc4c(F)cccc4s3)c2c1 [Example 1197, (S)-(4-(4-fluorobenzo[d]thiazol-2-yl)-6,7-dihydro-1H-imidazo[4,5-c]pyridin-5(4H)-yl)(5-methoxypyrazolo[1,5-a]pyridin-3-yl)methanone]	500 to 1000 nM
COc1ccn2ncc(C(=O)N3CCc4[nH]cnc4[C@@H]3c3nc4c(F)cccc4s3)c2c1 [Example 1198, (R)-(4-(4-fluorobenzo[d]thiazol-2-yl)-6,7-dihydro-1H-imidazo[4,5-c]pyridin-5(4H)-yl)(5-methoxypyrazolo[1,5-a]pyridin-3-yl)methanone]	1000 to 5000 nM
